Results taken from patent US10604474B2, “Crystalline form of gamma-aminobutyric acid and preparation method thereof” (NANTONG LICHENG BIOLOGICAL ENGINEERING CO., LTD, priority 2016, dated 2020).

What was measured:
Format in all cases: physicochemical
[1] = Moisture absorption and agglomeration
[2] = Angle of repose (flowability) measured with a 1050/70 type goniometer; settings: slightly ground, smeared on horizontal quartz plate; smaller than 40° meets flowability requirements
Experimental: It is generally believed that the smaller the angle of repose, the better the flowability. When the angle of repose is smaller than 40°, flowability requirements in the production process can be met.

[3] = Scanning Electron Microscopy (SEM) characterization of crystals
Bulk density = assay: Bulk density

| Angle of repose (flowability) [2] | Particle size distribution [3] | Bulk density (Bulk density) | Agglomeration [1] | SMILES | Susceptibility to absorbing moisture and agglomeration [1] |
| --- | --- | --- | --- | --- | --- |
| 35 ° | uniform | 0.8 g/mL |  | NCCCC(=O)O [Embodiment 6, γ-aminobutyric acid] | not susceptible to absorbing moisture and agglomeration |
| 50° |  | 0.65 g/mL | Serious agglomeration | NCCCC(=O)O [CN101928736A, CN103509831A, CN104531795A, CN102242161A] [γ-aminobutyric acid, reference compound] |  |
| 35° |  | 0.80 g/mL | No agglomeration | NCCCC(=O)O [Present invention, γ-aminobutyric acid] |  |

The next lines start with the compound.

| SMILES | Angle of repose (flowability) [2] | Particle size distribution [3] | Bulk density (Bulk density) | Agglomeration [1] | Susceptibility to absorbing moisture and agglomeration [1] |
| --- | --- | --- | --- | --- | --- |
| NCCCC(=O)O [Embodiment 5, γ-aminobutyric acid] | 37 ° | uniform | 0.7 g/mL |  | not susceptible to absorbing moisture and agglomeration |
| NCCCC(=O)O [Embodiment 2, γ-aminobutyric acid] | 37 ° | uniform | 0.7 g/mL |  | not susceptible to absorbing moisture and agglomeration |
| NCCCC(=O)O [Embodiment 1, γ-aminobutyric acid] | 35 ° | uniform | 0.8 g/mL |  | not susceptible to absorbing moisture and agglomeration |
| NCCCC(=O)O [Embodiment 4, γ-aminobutyric acid] | 36 ° | uniform | 0.75 g/mL |  | not susceptible to absorbing moisture and agglomeration |
| NCCCC(=O)O [Embodiment 3, γ-aminobutyric acid] | 34 ° | uniform | 0.85 g/mL |  | not susceptible to absorbing moisture and agglomeration |
